Experimental data published in the supplement of paper PMC4862054.
“And” between values parts separate entries of the source, which are not always exact repeats. Equal entries are not always repeated.

Each compound was assayed on DU-4475 (assay: normalised viability (% of control), CellTiter-Blue; higher = more viable cells (about 100 = DMSO control)). Conditions: 3 nM; incubation time: 72 h.
Method in brief: (§1)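 Breast cancer cell lines in 20 µl suspension were seeded onto 384-well plates pre-loaded with compound dissolved in 5 µl medium, then incubated 72 h. CellTiter-Blue reagent (2.5 µl) was added for 2 h at 37 °C and fluorescence read at 560/590 nm. Each plate was normalised to vehicle (100) and a positive kill control (0), with Z'-factor quality control. The value is normalised viability at one listed concentration of the series.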

SMILES	normalised viability
CC[C@@H]1C(=O)N(C)c2cnc(Nc3ccc(C(=O)NC4CCN(C)CC4)cc3OC)nc2N1C1CCCC1 [BI 2536]	86.5%
CCN(CC)CCCC(C)Nc1c2ccc(Cl)cc2nc2ccc(OC)cc12 (stereo unspecified) [Mepacrine]	92.6%
Nc1nc2[nH]cc(CCc3ccc(C(=O)N[C@@H](CCC(=O)O)C(=O)O)cc3)c2c(=O)[nH]1 [Pemetrexed]	106%
COc1cc([C@@H]2c3cc4c(cc3[C@@H](O[C@@H]3O[C@@H]5CO[C@@H](c6cccs6)O[C@H]5[C@H](O)[C@H]3O)[C@H]3COC(=O)[C@H]23)OCO4)cc(OC)c1O [Teniposide]	82%
COc1cc2nccc(Oc3ccc(NC(=O)Nc4cc(C)on4)c(Cl)c3)c2cc1OC [Tivozanib]	103%
O=C(Cc1ccc(-c2ccc(OCCN3CCOCC3)cc2)cn1)NCc1ccccc1 [KX2-391]	83.8%
Nc1ccccc1NC(=O)c1ccc(CNC(=O)OCc2cccnc2)cc1 [Entinostat]	117%
C=CC(=O)Nc1cc2c(Nc3ccc(F)c(Cl)c3)ncnc2cc1OCCCN1CCOCC1 [Canertinib]	107%
CC[C@H](Nc1ncnc2[nH]cnc12)c1nc2cccc(F)c2c(=O)n1-c1ccccc1 [CAL-101]	105%

Same assay, conditions: 9.9 nM; incubation time: 72 h

SMILES	normalised viability
CCN(CC)CCCC(C)Nc1c2ccc(Cl)cc2nc2ccc(OC)cc12 (stereo unspecified) [Mepacrine]	101%

Same assay, conditions: 10 nM; incubation time: 72 h

SMILES	normalised viability
O=C(/C=C/c1cccnc1)NCCCCC1CCN(C(=O)c2ccccc2)CC1 [FK-866]	86%
CC[C@@H]1C(=O)N(C)c2cnc(Nc3ccc(C(=O)NC4CCN(C)CC4)cc3OC)nc2N1C1CCCC1 [BI 2536]	50.6%

Same assay, conditions: 30 nM; incubation time: 72 h

SMILES	normalised viability
Nc1ncn([C@H]2C[C@H](O)[C@@H](CO)O2)c(=O)n1 [Decitabine]	81.5% and 97.7%
CCN(CC)CCCC(C)Nc1c2ccc(Cl)cc2nc2ccc(OC)cc12 (stereo unspecified) [Mepacrine]	89.1%
Nc1nc2[nH]cc(CCc3ccc(C(=O)N[C@@H](CCC(=O)O)C(=O)O)cc3)c2c(=O)[nH]1 [Pemetrexed]	117%
COc1cc([C@@H]2c3cc4c(cc3[C@@H](O[C@@H]3O[C@@H]5CO[C@@H](c6cccs6)O[C@H]5[C@H](O)[C@H]3O)[C@H]3COC(=O)[C@H]23)OCO4)cc(OC)c1O [Teniposide]	67.8%
COc1cc2nccc(Oc3ccc(NC(=O)Nc4cc(C)on4)c(Cl)c3)c2cc1OC [Tivozanib]	101%
O=C(Cc1ccc(-c2ccc(OCCN3CCOCC3)cc2)cn1)NCc1ccccc1 [KX2-391]	80.5%
Nc1ccccc1NC(=O)c1ccc(CNC(=O)OCc2cccnc2)cc1 [Entinostat]	117%
C=CC(=O)Nc1cc2c(Nc3ccc(F)c(Cl)c3)ncnc2cc1OCCCN1CCOCC1 [Canertinib]	113%
CC[C@H](Nc1ncnc2[nH]cnc12)c1nc2cccc(F)c2c(=O)n1-c1ccccc1 [CAL-101]	83.2%

Same assay, conditions: 100 nM; incubation time: 72 h

SMILES	normalised viability
Nc1ncn([C@H]2C[C@H](O)[C@@H](CO)O2)c(=O)n1 [Decitabine]	86.9% and 96.8%
CCN(CC)CCCC(C)Nc1c2ccc(Cl)cc2nc2ccc(OC)cc12 (stereo unspecified) [Mepacrine]	96.9%
Nc1nc2[nH]cc(CCc3ccc(C(=O)N[C@@H](CCC(=O)O)C(=O)O)cc3)c2c(=O)[nH]1 [Pemetrexed]	108%
COc1cc([C@@H]2c3cc4c(cc3[C@@H](O[C@@H]3O[C@@H]5CO[C@@H](c6cccs6)O[C@H]5[C@H](O)[C@H]3O)[C@H]3COC(=O)[C@H]23)OCO4)cc(OC)c1O [Teniposide]	28.1%
COc1cc2nccc(Oc3ccc(NC(=O)Nc4cc(C)on4)c(Cl)c3)c2cc1OC [Tivozanib]	119%
O=C(Cc1ccc(-c2ccc(OCCN3CCOCC3)cc2)cn1)NCc1ccccc1 [KX2-391]	16.1%
Nc1ccccc1NC(=O)c1ccc(CNC(=O)OCc2cccnc2)cc1 [Entinostat]	105%
C=CC(=O)Nc1cc2c(Nc3ccc(F)c(Cl)c3)ncnc2cc1OCCCN1CCOCC1 [Canertinib]	96.8%
CC[C@H](Nc1ncnc2[nH]cnc12)c1nc2cccc(F)c2c(=O)n1-c1ccccc1 [CAL-101]	86.2%

The compounds below were run on HCC1143 in the same assay as above. Conditions: 0.25 nM; incubation time: 72 h.
Method in brief: as §1

SMILES	normalised viability
CC(=O)Nc1cccc(-n2c(=O)n(C3CC3)c(=O)c3c(Nc4ccc(I)cc4F)n(C)c(=O)c(C)c32)c1	124%

Same assay, conditions: 0.99 nM; incubation time: 72 h

SMILES	normalised viability
CCN(CC)CCCC(C)Nc1c2ccc(Cl)cc2nc2ccc(OC)cc12 (stereo unspecified) [Mepacrine]	123%

Same assay, conditions: 1 nM; incubation time: 72 h

SMILES	normalised viability
O=C(/C=C/c1cccnc1)NCCCCC1CCN(C(=O)c2ccccc2)CC1 [FK-866]	85.6%
CC[C@@H]1C(=O)N(C)c2cnc(Nc3ccc(C(=O)NC4CCN(C)CC4)cc3OC)nc2N1C1CCCC1 [BI 2536]	109%

Same assay, conditions: 10 nM; incubation time: 72 h

SMILES	normalised viability
Nc1ncn([C@H]2C[C@H](O)[C@@H](CO)O2)c(=O)n1 [Decitabine]	82.7% and 80.8%
CCN(CC)CCCC(C)Nc1c2ccc(Cl)cc2nc2ccc(OC)cc12 (stereo unspecified) [Mepacrine]	93.5%
Nc1nc2[nH]cc(CCc3ccc(C(=O)N[C@@H](CCC(=O)O)C(=O)O)cc3)c2c(=O)[nH]1 [Pemetrexed]	90.8%
COc1cc([C@@H]2c3cc4c(cc3[C@@H](O[C@@H]3O[C@@H]5CO[C@@H](c6cccs6)O[C@H]5[C@H](O)[C@H]3O)[C@H]3COC(=O)[C@H]23)OCO4)cc(OC)c1O [Teniposide]	95.6%
COc1cc2nccc(Oc3ccc(NC(=O)Nc4cc(C)on4)c(Cl)c3)c2cc1OC [Tivozanib]	111%
O=C(Cc1ccc(-c2ccc(OCCN3CCOCC3)cc2)cn1)NCc1ccccc1 [KX2-391]	79.3%
Nc1ccccc1NC(=O)c1ccc(CNC(=O)OCc2cccnc2)cc1 [Entinostat]	84.5%
C=CC(=O)Nc1cc2c(Nc3ccc(F)c(Cl)c3)ncnc2cc1OCCCN1CCOCC1 [Canertinib]	74.9%
CC[C@H](Nc1ncnc2[nH]cnc12)c1nc2cccc(F)c2c(=O)n1-c1ccccc1 [CAL-101]	99.4%

Same assay, conditions: 25 nM; incubation time: 72 h

SMILES	normalised viability
CC(=O)Nc1cccc(-n2c(=O)n(C3CC3)c(=O)c3c(Nc4ccc(I)cc4F)n(C)c(=O)c(C)c32)c1	71%

Same assay, conditions: 99 nM; incubation time: 72 h

SMILES	normalised viability
CCN(CC)CCCC(C)Nc1c2ccc(Cl)cc2nc2ccc(OC)cc12 (stereo unspecified) [Mepacrine]	114%

Same assay, conditions: 100 nM; incubation time: 72 h

SMILES	normalised viability
O=C(/C=C/c1cccnc1)NCCCCC1CCN(C(=O)c2ccccc2)CC1 [FK-866]	24.4%
CC[C@@H]1C(=O)N(C)c2cnc(Nc3ccc(C(=O)NC4CCN(C)CC4)cc3OC)nc2N1C1CCCC1 [BI 2536]	51.3%

Same assay, conditions: 250 nM; incubation time: 72 h

SMILES	normalised viability
CC(=O)Nc1cccc(-n2c(=O)n(C3CC3)c(=O)c3c(Nc4ccc(I)cc4F)n(C)c(=O)c(C)c32)c1	64.6%

Same assay, conditions: 990 nM; incubation time: 72 h

SMILES	normalised viability
CCN(CC)CCCC(C)Nc1c2ccc(Cl)cc2nc2ccc(OC)cc12 (stereo unspecified) [Mepacrine]	45%

Same assay, conditions: 1000 nM; incubation time: 72 h

SMILES	normalised viability
Nc1ncn([C@H]2C[C@H](O)[C@@H](CO)O2)c(=O)n1 [Decitabine]	68.5% and 78.8%
O=C(/C=C/c1cccnc1)NCCCCC1CCN(C(=O)c2ccccc2)CC1 [FK-866]	21.3%
